Laboratory results: patent US20260015333A1, “COMPOUNDS AND METHODS FOR INHIBITION OF THE EVOLUTION OF […]” (priority 2022, published 2026)

Columns and labels:
Assay in all cases: Evolution assay of antibiotic resistance
Type in all cases: cell-based
[1] = test system: S. typhimurium; settings: challenged with rifampicin or trimethoprim, or phosphomycin; 50 μM ARM-1
Description: (§1) FIGS. 4A-4C depict how ARM-1 inhibits the evolution of antibiotic resistance. FIG. 4A depicts the minimum inhibitory concentration of ARM-1 in E. coli and S. aureus. FIGS. 4B-4C depict the evolution of indicated species against (FIG. 4B) rifampicin and (FIG. 4C) trimethoprim in the presence of ARM-1. Heatmaps show median MIC over time. Concentrations are indicated to the right of each plot. Each strain and antibiotic is the result of at least 12 biological replicates. Concentration of ARM-1 used against L. monocytogenes, P. aeruginosa, and S. aureus is 100 μM. Concentration of ARM-1 used against S. typhimurium is 50 μM. Populations of bacteria are grown overnight in a series of increasing antibiotic concentrations, with or without ARM-1 present. The following day, the population from the highest tolerated concentration is re-challenged with higher concentrations of antibiotic. The median MIC is determined after each 24 hour growth period as the lowest concentration of antibiotic at which at least 50% growth impairment is observed compared to an untreated population. MIC fold change is reported as the change in MIC from the first day of growth to each subsequent day.
(§2) Next, the effect of ARM-1 on the evolution of antibiotic resistance was examined. Genetic deletion of Mfd is known to reduce the rates and extent of resistance development in laboratory evolution experiments. Using an assay previously developed, the impact of ARM-1 was assessed on resistance development across diverse pathogens and in response to multiple classes of antibiotics. In these experiments, bacteria are challenged with increasing concentrations of antibiotic over a minimum of least 55 generations. Reduced resistance development in bacteria treated with ARM-1 was observed compared to those that were untreated, in all species and antibiotics tested. […] This pattern was also observed in P. aeruginosa, S. aureus, and L. monocytogenes, with ARM-1 treatment resulting in 80, […] reduction in resistance to rifampicin, respectively (FIG. 4B). […] Sequencing of relevant resistance loci over the course of treatment confirmed that these observations are due to genetic changes; many more resistance mutations arise in untreated populations compared to those treated with ARM-1 (Table 1). […] Furthermore, patient isolates of S. typhimurium, S. aureus, and P. aeruginosa which already carry resistance mutations to other antibiotics were used, and still observed a reduction in resistance development during experiments. […]
(§3) Evolution experiments were performed for the indicated strains. […] Optical densities were subsequently measured in an Epoch2 microplate spectrophotometer (BioTek). […]

[2] = test system: P. aeruginosa; settings: 100 μM ARM-1, rifampicin
Description: as §1, §2, §3

[3] = test system: S. aureus; settings: 100 μM ARM-1, rifampicin
Description: as §1, §2, §3

[4] = test system: L. monocytogenes; settings: 100 μM ARM-1, rifampicin
Description: as §1, §2, §3

## Cc1cc(Br)ccc1-c1ccc(CNCCCN(C)C)o1 [ARM-1, N^1-((5-(4-bromo-2-methylphenyl)furan-2-yl)methyl)-N^3,N^3-dimethylpropane-1,3-diamine]
[1]
  difference in median MIC fold change between untreated and treated: ≥ 100 fold
[2]
  reduction in resistance to rifampicin: 80 FOLD
[3]
  reduction in resistance to rifampicin: 800 FOLD
[4]
  reduction in resistance to rifampicin: 1000 FOLD
